Test results as given in publication PMC8482806, “A Novel Blood-Brain Barrier-Permeable Chemotherapeutic Agent for the Treatment of Glioblastoma” (Cureus, 2021).

Assays:
hLAT1 = target: T1, hLAT1 (Homo sapiens, UniProt Q01650); assay: Substrate transport inhibition, [3H]-gabapentin uptake in LLC-PK1 cells expressing hLAT1; type: cell-based
T1 construct: host or cells: LLC-PK1 (tetracycline-inducible, Invitrogen Gateway pT-REx System)
Experimental: (§1) Substrate transport inhibition studies were conducted with LLC-PK1 cells inducibly expressing either hLAT1 or hLAT2. Cells were plated in growth media with 1 μg/mL doxycycline at 30,000 cells/well in 96-well plates. Sixteen hours after plating, cells were treated with butyrate at a final concentration of 5 mM. The following day, cells were washed with PBS and incubated in the presence or absence of various concentrations of QBS10072S with 30,000 cpm/well of either [3H]-gabapentin (LAT1) or [3H]-leucine (LAT2) in PBS for 15 minutes at room temperature. The non-specific cell-bound activity was determined by the addition of 5 mM unlabeled gabapentin (LAT1) or leucine (LAT2). Unincorporated radioactivity was removed, and cells were washed three times with ice-cold PBS. Cells were lysed by adding scintillation fluid to each well, and cell-associated radioactivity was determined via scintillation counting using a multichannel 96-well plate reader (MicroBeta Trilux, Perkin Elmer, Waltham, MA). Data were expressed as the percent of specific radioactivity uptake in wells with no compound added. LC50s were determined by non-linear curve-fitting using GraphPad Prism (San Diego, CA).

hLAT2 = target: T2, hLAT2 (Homo sapiens, UniProt Q9UHI5); assay: Substrate transport inhibition, [3H]-leucine uptake in LLC-PK1 cells expressing hLAT2; type: cell-based
T2 construct: host or cells: LLC-PK1 (tetracycline-inducible, Invitrogen Gateway pT-REx System)
T2 sequence (Q9UHI5 1-535): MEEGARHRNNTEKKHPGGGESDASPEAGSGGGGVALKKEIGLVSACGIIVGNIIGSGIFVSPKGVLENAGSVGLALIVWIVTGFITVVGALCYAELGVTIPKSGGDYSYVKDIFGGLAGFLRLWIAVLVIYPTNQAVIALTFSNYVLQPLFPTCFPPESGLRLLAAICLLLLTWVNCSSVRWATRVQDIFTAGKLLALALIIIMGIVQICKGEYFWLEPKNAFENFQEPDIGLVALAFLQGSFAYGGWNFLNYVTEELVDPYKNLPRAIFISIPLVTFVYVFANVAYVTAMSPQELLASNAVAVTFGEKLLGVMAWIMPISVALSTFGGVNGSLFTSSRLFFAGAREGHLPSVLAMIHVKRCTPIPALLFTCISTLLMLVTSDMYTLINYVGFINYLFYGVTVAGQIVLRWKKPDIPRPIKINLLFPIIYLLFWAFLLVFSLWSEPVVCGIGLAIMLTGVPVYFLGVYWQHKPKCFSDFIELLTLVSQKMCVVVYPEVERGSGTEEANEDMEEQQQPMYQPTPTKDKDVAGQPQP
T2 sequence (P08195 1-529 partner): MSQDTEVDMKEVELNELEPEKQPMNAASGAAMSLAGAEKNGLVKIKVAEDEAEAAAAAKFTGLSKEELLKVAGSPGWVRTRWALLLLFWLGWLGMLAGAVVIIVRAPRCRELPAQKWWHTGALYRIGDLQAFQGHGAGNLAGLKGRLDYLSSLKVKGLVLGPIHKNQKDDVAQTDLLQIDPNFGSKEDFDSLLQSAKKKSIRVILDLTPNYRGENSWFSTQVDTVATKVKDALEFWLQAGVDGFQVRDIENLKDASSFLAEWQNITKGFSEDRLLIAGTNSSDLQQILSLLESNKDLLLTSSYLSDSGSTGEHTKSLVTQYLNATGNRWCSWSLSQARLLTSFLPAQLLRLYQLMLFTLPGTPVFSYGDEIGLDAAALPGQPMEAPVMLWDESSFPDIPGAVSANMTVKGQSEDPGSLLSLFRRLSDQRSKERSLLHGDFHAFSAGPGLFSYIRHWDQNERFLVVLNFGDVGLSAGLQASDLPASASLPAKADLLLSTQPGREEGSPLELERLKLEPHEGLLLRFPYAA
Experimental: as §1

[1] = Cytotoxicity in normal human astrocytes (CellTiter-Glo); type: cell-based; conditions: normal human astrocytes (NHA), read-out: LC50
Experimental: In vitro activity of QBS10072S was assessed using a modified clonogenic cell viability assay in 96-well clear-bottom plates. […] For GBM cell lines, 2000 cells/well were plated. On day 2 (GBM) or day 3 (LLC-PK1) after original plating, cells were washed twice with PBS and incubated with 50 μL of various concentrations of QBS10072S in PBS in at least quadruplicate. After 30 minutes at 37°C, 200 μL of growth medium was added to each well. Clonal populations were allowed to grow until the control wells (mock treatment) were near confluence (7 to 10 days). At this point, 170 μL media were removed and 60 μL CellTiter-Glo® (Promega, Madison, WI) were added to each well. Plates were placed on an orbital shaker for three minutes to lyse the cells and then incubated for an additional 10 minutes at RT to stabilize the luminescent signal. Luminescence was recorded using an EnSpire® Multimode Plate Reader (Perkin Elmer). Background (luminescence from wells incubated with 100 μM melphalan or lomustine) was subtracted and data were normalized to the control. EC50s were determined by non-linear regression using GraphPad Prism.
Cells were incubated with a titration of QBS10072S or melphalan and cell viability was measured by CellTiter-Glo. LC50 values for each compound were determined.

U87 cells = assay: WST1 cell viability assay, U87; type: cell-based; conditions: Homo sapiens, U-87 MG; U87; QBS10072S 1 hour in PBS, TMZ 2 days, read day 7; read-out: LC50 (μM ± SD)
Experimental: (§2) In vitro activities of QBS10072S and temozolomide (TMZ) in U87 and U87-MGMT cells were assessed using the WST1 cell viability assay in 96-well plates in which 500/well of cells were plated in sextuplets for each condition. To avoid cell loss, the following washing and medium removing procedures were all done using a P200 pipet without vacuum aspiration. For QBS10072S treatment, cells were washed with PBS the next day and incubated with 50 μL of various concentrations of QBS10072S in PBS for 1 hour at 37°C. After incubation, 150 μL of growth medium was added to each well. The medium was subsequently changed every two days until day 7. For TMZ treatment, cells were treated with 100 μL of various concentrations of TMZ in a growth medium for 2 days. After incubation, cells were put back in a normal growth medium and continued culturing for five days. In the end, 10 μL of WST1 reagent was added to each well and incubated at 37°C for 4h before subjecting to plate reading at 450 nm and 690nm using an EnSpire multimode plate reader (PerkinElmer). Background (OD690nm) was subtracted and data were normalized to the control. LC50s were determined by non-linear regression using GraphPad Prism (GraphPad Software Inc., San Diego, California)

U87-MGMT cells = assay: WST1 cell viability assay, U87-MGMT; type: cell-based; conditions: Homo sapiens; U87-MGMT; QBS10072S 1 hour in PBS, TMZ 2 days, read day 7; read-out: LC50 (μM ± SD)
Experimental: as §2

[2] = tested on: U251 intracerebral human GBM xenograft; assay: U251 intracerebral human GBM xenograft in athymic mice (BLI, survival); type: in vivo, mouse; conditions: temozolomide 4 mg/kg oral gavage daily for 5 days plus RT 1.5 Gy daily for 5 days; vehicle 35
Experimental: Five-week-old female athymic mice (nu/nu, homozygous: Simonsen Laboratories, Gilroy, CA), housed under aseptic conditions, received intracranial tumor cell injection as previously described and as approved by the University of California San Francisco Institutional Animal Care and Use Committee, Protocol #: AN111064-03. Briefly, mice were anesthetized by intraperitoneal injection of ketamine (100 mg/kg) and xylazine (10 mg/kg) and injected with 3 μL of tumor cell suspension (300,000 cells total) into the right caudate-putamen. Coordinates: 3 mm to the right from bregma, on top of the coronal suture, and 3.5 mm depth. Injection rate: ~30 second/uL. For treatment studies, eight mice were used for each group for LN229 studies and nine mice per group for U251 studies. Treatments began when tumors entered the log-phase of growth as measured by luminescence, for the LN229 experiment on Day 21 and for U251 experiments on Day 14.
Dosing levels and frequency are described in the figure legends.
For bioluminescence imaging (BLI), mice were anesthetized as above, then administered 150 mg/kg of luciferin (D-luciferin potassium salt, Gold Biotechnology, St. Louis, MO) via intraperitoneal injection. Ten minutes after luciferin injection, mice were examined for tumor bioluminescence with an IVIS Lumina imaging station and Living Image software (Caliper Life Sciences, Alameda, CA), and regions of interest were recorded as photons per second per steradian per square cm.
Mice were anesthetized via inhalation of 2.5% isoflurane with 1 L of oxygen per minute for five minutes prior to being positioned on an irradiation platform located 16.3 cm from a cesium-137 source (JL Shepherd & Associates, San Fernando, CA). Eyes, respiratory tracts, and bodies were protected with lead shielding. Mice received whole-brain irradiation at a dose rate of 247 cGy/min until 1.5 Gy radiation had been administered. After irradiation, animals were monitored until recovery. Mice were irradiated once daily for five consecutive days. All mice received the first radiation dose when tumors were in a log-phase growth (Day 14) as determined by BLI.
Tumor-bearing mice were treated with temozolomide (TMZ) 4 mg/kg via oral gavage, starting on day 14 post U251 cell injection once daily for five days - concurrent therapy with RT. TMZ was obtained from the UCSF hospital pharmacy and formulated with the Ora-Plus suspending vehicle (Perrigo, Dublin, Ireland) with a working concentration of 1 mg/mL.

T1 sequence (Q01650 whole entry, one chain of several): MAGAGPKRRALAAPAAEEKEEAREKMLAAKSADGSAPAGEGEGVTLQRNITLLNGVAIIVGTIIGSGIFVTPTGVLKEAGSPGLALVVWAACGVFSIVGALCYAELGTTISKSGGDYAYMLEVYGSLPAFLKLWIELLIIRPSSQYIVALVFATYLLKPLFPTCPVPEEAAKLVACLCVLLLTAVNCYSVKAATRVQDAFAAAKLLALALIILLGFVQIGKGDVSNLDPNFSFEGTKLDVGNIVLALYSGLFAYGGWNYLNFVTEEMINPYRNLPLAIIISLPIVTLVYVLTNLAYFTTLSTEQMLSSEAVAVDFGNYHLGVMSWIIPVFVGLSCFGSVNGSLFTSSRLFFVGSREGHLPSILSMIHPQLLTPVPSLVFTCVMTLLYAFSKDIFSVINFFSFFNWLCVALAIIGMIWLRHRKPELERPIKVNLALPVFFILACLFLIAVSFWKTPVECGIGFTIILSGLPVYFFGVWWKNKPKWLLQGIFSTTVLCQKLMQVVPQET

Row | Compound | IC50 (hLAT1) | IC50 (hLAT2) | CC50 at 30 min [1] | CC50 (U87 cells) | CC50 (U87-MGMT cells) | median survival time [2]
1 | N[C@@H](Cc1ccc(N(CCCl)CCCl)cc1)C(=O)O [Melphalan, melphalan, reference compound] | 170 µM | 390 µM | 0.86 µM |  |  | 
2 | Cn1nnc2c(C(N)=O)ncn2c1=O [TMZ, temozolomide, reference compound] |  |  |  | 82.3 ± 10.5 µM | > 200 µM | 48 days
